Patent publication US20100120715A1, “BETA-LACTAMASE INHIBITORS” (priority 2007, published 2010)
Where two headings read alike, the source gives them in different places.

Legend:
Class A ESBL SHV-5 = target: T1, Class A ESBL SHV-5 (Klebsiella pneumoniae, UniProt P0A3M1); assay type: biochemical, E. coli; conditions: nitrocefin 100 μM, PBS pH 7.0, read-out: SHV-5 IC50 Range
T1 construct: made in house; host or cells: E. coli BL21(DE3) for purified enzyme; E. coli cells containing SHV-5 for extracts
T1 sequence (P0A3M1 22-286): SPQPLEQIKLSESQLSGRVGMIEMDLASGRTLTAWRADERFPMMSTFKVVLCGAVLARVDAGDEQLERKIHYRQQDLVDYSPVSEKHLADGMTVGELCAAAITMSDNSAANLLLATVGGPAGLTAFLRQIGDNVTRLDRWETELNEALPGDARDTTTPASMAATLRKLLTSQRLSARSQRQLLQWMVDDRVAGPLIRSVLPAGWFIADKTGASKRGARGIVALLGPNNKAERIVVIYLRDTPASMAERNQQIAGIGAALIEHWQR
Procedure: (§1) Isolation of β-lactamases. For all examples, purified beta-lactamase enzymes were used to measure a compounds' ability to inhibit the Class A ESBL CTXM-15, the Class C P99 AmpC and the Class A carbapenemase KPC-2. […] The enzyme preparations are described herein.
For the preparation of SHV-5 extracts, E. coli cells containing SHV-5 were cultured overnight with shaking at a volume of 20 mL. They were further diluted 10-fold and grown to mid-log phase (OD at 600 nm, 0.5-0.8) in Mueller-Hinton II (MH-II) broth at 37° C. The cells were pelleted at 5000 g, washed and resuspended in 2 mL PBS pH 7.0. The β-lactamase was extracted by four cycles of freezing and thawing followed by centrifugation. β-lactamase activity in the extract was measured with the chromogenic cephalosporin nitrocefin. The amount of protein in each β-lactamase preparation was determined by the bicinchoninic acid (BCA) assay.
(§2) For the isolation and purification of SHV-5, p99 AmpC, KPC-2 and CTX-M15 β-lactamases, E. coli BL21(DE3) bacterial cells carrying expression plasmids (expressed as native untagged proteins) for the individual β-lactamases were grown in 1 L of Superbroth (Teknova Inc. Hollister, Calif.) supplemented with 100 μg/ml kanamycin and 1×5052 (0.5% glycerol, 0.05% glucose and 0.2% α-lactose) at 35° C. for 18-20 hours. Cells were harvested by centrifugation (4,000×g, 4° C., 20 min), and resuspended in 50 ml of 10 mM HEPES pH 7.5 ( 1/20 of the initial volume). The cells were lysed by sonication (5 pulses of 45 seconds) at 45 W on ice. The lysates were clarified by centrifugation at 10,000×g for 40 minutes at 4° C. Samples were diluted 5-fold in 50 mM sodium acetate pH 5.0, stored overnight at 4° C., after which they were centrifuged at 10,000×g for 30 minutes to clarify, and filtered through 0.45 μm filters. The samples were loaded onto a 5 ml Capto S sepharose cation exchange column (GE Healthcare) pre-equilibrated with 50 mM sodium acetate pH 5.0. The column was washed with 5 column volumes of 50 mM sodium acetate pH 5.0 to wash out unbound protein and a linear gradient of NaCl (0 to 500 mM) was used to elute the protein (over 16 CV) from the column. Fractions were assayed for β-lactamase activity using Centa (Calbiochem, Gibbstown, N.J.) as a reporter β-lactamase substrate for activity in the isolated fractions. Active fractions were pooled, concentrated and further purified by gel filtration chromatography on a Superdex 75 prep grade gel filtration column (GE Healthcare, Piscataway, N.J.) pre-equilibrated in 50 mM Hepes pH 7.5, 150 mM NaCl. Active fractions were pooled concentrated, quantitated by BCA protein determination (Thermo Scientific, Rockford, Ill.), and frozen at −80° C. in 20% glycerol until use.
(§3) β-lactamase Inhibition. To determine the level of inhibition of β-lactamaseenzymes, compounds were diluted in PBS at pH 7.0 to yield concentrations between 100 and 0.005 μM in microtiter plates. An equal volume of diluted enzyme stock was added, and the plates were incubated at 37° C. for 10 min. Nitrocefin solution was then dispensed as substrate into each well at a final concentration of 100 μM, and the plates were immediately read with the kinetic program at 486 nm for 10 min on the SPECTRAMAX® Plus^384 (high-throughput microplate spectrophotometer; Molecular Devices Corp., Sunnyvale, Calif.). Maximum rates of metabolism were then compared to those in control wells (without inhibitors), and percentages of enzyme inhibition were calculated for each concentration of inhibitor. The concentration of inhibitor needed to reduce the initial rate of hydrolysis of substrate by 50% (IC50) was calculated as the residual activity of β-lactamase at 486 nm using the SoftMax Pro 5.0 software (Molecular Devices Corp.).

[1] = system: K. pneumoniae expressing the Class A carbapenemase KPC-2; test: microbe, parasite or virus in culture; conditions: in the presence of fixed 8 μg/mL Ceftazidime
From the text: (§4) To determine the ability of test compounds to potentiate the inhibition of the growth of bacterial strains producing beta-lactamase enzymes, classic cell based screening assays were employed. Four bacteria strains producing beta-lactamase enzymes were used: K. pneumoniae expressing the Class A Extended Spectrum Beta-Lactamase (ESBL) CTX-M-15, E. coli expressing the Class A ESBL SHV-5, E. cloacae expressing the Class C P99+, and K. pneumoniae expressing the Class A carbapenemase KPC-2. In order to evaluate the ability of test compounds to inhibit beta-lactamase activity, Applicants used a modification of the broth microdilution assay. The assay was conducted in Cation Adjusted Mueller Hinton Broth (CAMHB, BD # 212322, BD Diagnostic Systems, Sparks, Md.). Bacteria strains were grown for 3-5 hours in CAMBH broth. All four strains were grown in presence of 50 μg/mL ampicillin to ensure resistance is maintained. In the meantime, test compounds were diluted in DMSO to a 0.1 mg/mL stock. The compounds were added to a microtiter plate and were diluted in 2-fold serial dilutions in CAMHB in a final concentration range of 8 μg/mL to 0.015 μg/ml. An overlay of CAMHB containing a cephalosporin was added to the compounds at a final static concentration of 8 μg/ml. […] Each of these compound plates are made in quadruplicate, one for each bacteria strain. In addition to the titration of test compounds the MICs of a panel of cephalosporins is also tested to ensure the strains are behaving consistently from test to test. Once the test compound and cephalosporin are added the plates can be inoculated. Inocula are conducted according to CLSI broth microdilution method. After inoculation the plates are incubated for 16-20 hours at 37° C. then the Minimal Inhibitory Concentration (MIC) of the test compound is determined visually.

[2] = system: K. pneumoniae expressing the Class A ESBL CTX-M-15; test: microbe, parasite or virus in culture; assay type: cell-based; conditions: in the presence of fixed 8 μg/mL Ceftazidime
From the text: as §4, with “An overlay of CAMHB containing a cephalosporin was added to the compounds at a final static concentration of 8 μg/ml.” left out

Class C P99 AmpC = target: T2, Class C P99 AmpC (Enterobacter cloacae, UniProt P05364); assay type: biochemical; conditions: purified enzyme; nitrocefin 100 μM, PBS pH 7.0; read-out: P99 AmpC IC50 Range
T2 construct: made in house; host or cells: E. coli BL21(DE3)
T2 sequence (P05364 21-381): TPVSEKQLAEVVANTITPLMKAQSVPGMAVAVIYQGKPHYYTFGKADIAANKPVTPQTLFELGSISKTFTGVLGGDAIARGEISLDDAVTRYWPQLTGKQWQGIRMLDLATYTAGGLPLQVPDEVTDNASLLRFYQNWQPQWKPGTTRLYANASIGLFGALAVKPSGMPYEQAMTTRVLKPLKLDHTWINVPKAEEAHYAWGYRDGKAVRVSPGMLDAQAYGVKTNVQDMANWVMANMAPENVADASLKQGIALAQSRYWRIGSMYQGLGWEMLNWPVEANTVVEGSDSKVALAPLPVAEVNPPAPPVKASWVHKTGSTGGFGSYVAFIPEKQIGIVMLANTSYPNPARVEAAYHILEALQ
Procedure: as §1, §2, §3

Class A ESBL CTXM-15 = target: T3, Class A ESBL CTXM-15 (Escherichia coli, UniProt Q9EXV5); test: β-lactamase enzyme inhibition (nitrocefin hydrolysis), CTXM-15; assay type: biochemical; conditions: purified enzyme; nitrocefin 100 μM, PBS pH 7.0; read-out: CTXM-15 IC50 Range
T3 construct: made in house; host or cells: E. coli BL21(DE3)
T3 sequence (Q9EXV5 entry or part of it): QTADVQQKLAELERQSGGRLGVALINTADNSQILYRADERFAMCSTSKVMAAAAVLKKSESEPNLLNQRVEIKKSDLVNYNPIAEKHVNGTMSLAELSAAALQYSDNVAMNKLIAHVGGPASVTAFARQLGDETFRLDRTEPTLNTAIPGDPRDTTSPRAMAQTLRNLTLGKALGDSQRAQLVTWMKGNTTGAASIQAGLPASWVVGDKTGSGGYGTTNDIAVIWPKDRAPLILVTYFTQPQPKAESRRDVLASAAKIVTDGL
Procedure: as §1, §2, §3

[3] = target: T4, Class A carbapenemase KPC-2 (Klebsiella pneumoniae, UniProt Q9F663); test: β-lactamase enzyme inhibition (nitrocefin hydrolysis), KPC-2; assay type: biochemical; conditions: purified enzyme; nitrocefin 100 μM, PBS pH 7.0; read-out: KPC-2 IC50 Range
T4 construct: made in house; host or cells: E. coli BL21(DE3)
T4 sequence (Q9F663 25-293 limits assumed): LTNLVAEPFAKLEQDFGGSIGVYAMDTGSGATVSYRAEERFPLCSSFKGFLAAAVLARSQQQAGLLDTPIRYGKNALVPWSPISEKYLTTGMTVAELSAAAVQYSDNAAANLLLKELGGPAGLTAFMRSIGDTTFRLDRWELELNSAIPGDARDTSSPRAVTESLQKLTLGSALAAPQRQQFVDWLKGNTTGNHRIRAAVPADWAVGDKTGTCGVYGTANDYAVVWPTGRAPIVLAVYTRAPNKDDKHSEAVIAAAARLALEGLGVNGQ
Procedure: as §1, §2, §3

[4] = cellular extracts of E. coli containing SHV-5 (Examples 2-30)
[5] = purified beta-lactamase enzyme (Examples 1 and 31-64)

Row | Compound | IC50 (Class A ESBL SHV-5; [4]) [nM] | MIC of example compound, K. pneumoniae KPC-2 + 8 μg/mL CAZ [1] | MIC of example compound, K. pneumoniae CTX-M-15 + 8 μg/mL CAZ [2] | IC50 (Class C P99 AmpC) [nM] | IC50 (Class A ESBL CTXM-15) [nM] | IC50 [3] [nM] | IC50 (Class A ESBL SHV-5; [5]) [nM]
1 | O=C(Cc1cccc(O)c1)N[C@@H](Cc1cccc(C(=O)O)c1O)B(O)O [Example 3, (1R)-1-(3-hydroxy-phenyl)acetylamino-1-(3-carboxy-2-hydroxy)benzyl-methyl boronic acid] | < 10 | C (C represents an MIC of <1 μg/mL) | C (C represents an MIC of <1 μg/mL) | < 10 | < 10 | – | –
2 | O=C(O)c1cccc(C[C@H](NC(=O)c2cccc3ccccc23)B(O)O)c1O [Example 27, (1R)-1-(1-naphthoylamino)-2-(2-hydroxy-3-carboxyphenyl)ethyl-1-boronic acid] | 10 to 100 | C (C represents an MIC of <1 μg/mL) | – | < 10 | < 10 | < 10 | –
3 | Cc1ccccc1C(=O)N[C@@H](Cc1cccc(C(=O)O)c1O)B(O)O [Example 30, (1R)-1-(2-methylbenzoylamino)-2-(2-hydroxy-3-carboxyphenyl)ethyl-1-boronic acid] | 10 to 100 | C (C represents an MIC of <1 μg/mL) | – | < 10 | < 10 | < 10 | –
4 | O=C(N[C@@H](Cc1cccc(C(=O)O)c1O)B(O)O)c1ccc(Cl)cc1 [Example 32, (1R)-1-(4-Chloro-benzoyl)-amino-1-(3-carboxy-2-hydroxy)benzyl-methylboronic acid] | – | C (C represents an MIC of <1 μg/mL) | – | < 10 | < 10 | < 10 | 10 to 100
5 | COc1ccc(C(=O)N[C@@H](Cc2cccc(C(=O)O)c2O)B(O)O)cc1 [Example 33, (1R)-1-(4-Methoxybenzoyl)-amino-1-(3-carboxy-2-hydroxy)benzyl-methylboronic acid] | – | C (C represents an MIC of <1 μg/mL) | – | < 10 | < 10 | < 10 | 100 to 1000
6 | O=C(N[C@@H](Cc1cccc(C(=O)O)c1O)B(O)O)c1ccccc1O [Example 35, (1R)-1-(2-hydroxybenzoylamino)-2-(2-hydroxy-3-carboxyphenyl)ethyl-1-boronic acid] | – | C (C represents an MIC of <1 μg/mL) | – | < 10 | < 10 | 10 to 100 | 10 to 100
7 | O=C(CN1C(=O)c2ccccc2C1=O)N[C@@H](Cc1cccc(C(=O)O)c1O)B(O)O [Example 45, (1R)-1-(2-(1,3-dioxoisoindolin-2-yl)acetylamino)-2-(2-hydroxy-3-carboxyphenyl)ethyl-1-boronic acid] | – | C (C represents an MIC of <1 μg/mL) | – | < 10 | < 10 | < 10 | < 10
8 | O=C(N[C@@H](Cc1cccc(C(=O)O)c1O)B(O)O)c1ccncc1 [Example 55, (1R)-1-(Pyridine-4-carbonyl-amino)-2-(2-hydroxy-3-carboxyphenyl)ethyl-1-boronic acid] | – | – | – | < 10 | < 10 | < 10 | 10 to 100
9 | O=C(N[C@@H](Cc1cccc(C(=O)O)c1O)B(O)O)c1cccc(-n2ccnc2)c1 [Example 57, (1R)-1-(3-Imidazol-1-yl-benzoylaminoamino)-2-(2-hydroxy-3-carboxyphenyl)ethyl-1-boronic acid] | – | C (C represents an MIC of <1 μg/mL) | – | < 10 | < 10 | < 10 | < 10
10 | O=C(N[C@@H](Cc1cccc(C(=O)O)c1O)B(O)O)c1cnccn1 [Example 58, (1R)-1-(Pyrazine-2-carbonyl-amino)-2-(2-hydroxy-3-carboxyphenyl)ethyl-1-boronic acid] | – | C (C represents an MIC of <1 μg/mL) | – | 10 to 100 | < 10 | < 10 | 10 to 100
11 | CC(=O)Nc1nc(CC(=O)N[C@@H](Cc2cccc(C(=O)O)c2O)B(O)O)cs1 [Example 63, (1R)-1-((2-Acetylamino-thiazol-4-yl)-acetylamino)-2-(2-hydroxy-3-carboxyphenyl)ethyl-1-boronic acid] | – | C (C represents an MIC of <1 μg/mL) | – | < 10 | < 10 | < 10 | < 10
